Results reported in PMC5734728, “The JAK2/STAT3 inhibitor pacritinib effectively inhibits patient-derived GBM brain tumor initiating cells in vitro and when used in combination with temozolomide increases survival in an orthotopic xenograft model” (PLoS ONE, 2017).
Read-outs that look alike come from different tables or passages of the source.

Columns and labels:
in vitro = in vitro ADME, mouse; details: male, CD-1, mouse
Protocol: (§1) Working stocks were initially diluted to a concentration of 40 μM in 0.1 M potassium phosphate buffer before addition to the reaction vials. Pooled mouse (CD-1, male) or human (50 donors) liver microsomes were utilized at a final concentration of 0.5 mg/mL. Duplicate wells were used for each time point (0 and 30 minutes). Reactions were carried out at 37°C in a shaker, and the final concentration of DMSO was kept constant at 0.01%. The final volume for each reaction was 100 μL, which included the addition of an NADPH-Regeneration solution (NRS) mix. The NRS mix was comprised of glucose 6-phosphate dehydrogenase (0.4 U/mL), NADP+ (1.3 mM), MgCl2 (3.3 mM), and glucose 6-phosphate (3.3 mM) in assay mixtures. Upon completion of the 30-minute time point, reactions were terminated by the addition of 1.5-volumes (150 μL) of ice-cold acetonitrile with 0.5% formic acid and internal standard. Samples were then centrifuged at 4,000 rpm for 10 minutes to remove debris and precipitated protein. Approximately 150 μL of supernatant was subsequently transferred to a new 96-well microplate for LC-MS analysis. Narrow-window mass extraction LC-MS analysis was performed for all samples using a Waters Xevo quadrupole time-of-flight (QToF) mass spectrometer and an ACQUITY UPLC system, to determine relative peak areas of parent compound.

[1] = mouse liver microsomes; usual value of control compound; cited from earlier work
[2] = human liver microsomal stability assay; type: in vitro ADME; details: human liver microsomes, 30-minute incubation, 1 μM
Protocol: as §1

[3] = human liver microsomes; usual value of control compound; cited from earlier work
p-STAT3 Y705 = assay: western blotting of activated STAT3 in BTICs; type: cell-based, human; details: BT53, 48 hours; 1 μM pacritinib, 10 μg/mL TMZ or both
Protocol: BTIC spheres were enzymatically dissociated as described above and plated at 10^6 cells/2 mL of media. Cells were treated with vehicle (DMSO), pacritinib, TMZ, or a combination of pacritinib and TMZ and pelleted at select time points (3, 24, and 48 hours). For protein extraction, BTICs were lysed in modified radio-immunoprecipitation assay buffer supplemented with Complete Mini protease (Roche) and Halt phosphatase (Thermo Scientific) inhibitor cocktails. Protein concentrations were quantified using the BioRad protein assay; 20 μg of protein were loaded on 6% or 10% sodium dodecyl sulfate polyacrylamide gel electrophoresis (SDS PAGE) gels and transblotted to nitrocellulose membranes. Blots were stained with primary antibodies followed by horseradish peroxidase-conjugated secondary antibodies. Primary antibodies included p-STAT3 Y705 (1:1000; Cell Signaling Technology), STAT3 (1:1000; Cell Signaling Technology), p-Akt S473 (1:1000; Cell Signaling Technology), Akt (1:1000; Cell Signaling Technology), p-p44/42 MAPK (T202/Y204) (1:1000; Cell Signaling Technology), p44/42 MAPK (1:4000; Cell Signaling Technology), poly (ADP-ribose) polymerase (1:1000; Cell Signaling Technology), β-tubulin (1:1000; Cell Signaling Technology), and Actin (1:1000; Santa Cruz Biotechnology). Secondary antibodies included donkey anti-mouse (1:5000; Cell Signaling Technology), donkey anti-goat (1:5000; Millipore), and goat anti-rabbit (1:5000; Cell Signaling Technology). The blots were washed with tris-buffered saline and tween 20 (T-TBS) (50mM Tris, 150mM NaCl, 0.05% Tween 20, pH 7.6) and blocked with tris-buffered saline (TBS) before imaging. Bands were visualized with the SuperSignal West Pico chemiluminescent solution (Thermo Scientific) and an Amersham™ Imager 600 (General Electric).

[4] = system: BT53 orthotopic xenograft; assay: Kaplan-Meier survival, orthotopic BT53 xenograft; type: in vivo, mice; details: BT53; combination p < 0.0023, TMZ alone p < 0.0229, log-rank
Protocol: For Kaplan-Meier survival studies, BTIC spheres from BT53 or BT147 were dissociated to a single-cell suspension. Mice were anaesthetized using 10 mg/kg ketamine/xylazine. Buprenorphine (0.05 mg/kg) was administered once pre-operatively and once post-operatively to minimize animal suffering. 5 x 10^4 cells were stereotactically implanted into the right striata of 8- to 10-week-old female severe combined immunodeficient (SCID) mice, as previously described and approved by the University of Calgary Health Sciences Animal Care Committee, accredited by CCAC. Mice were randomized to vehicle or treatment cohorts, with a minimum of 8 mice per group, one week after cell implantation. For BT147, vehicle (Ora-Plus; Galenova), pacritinib (100 mg/kg), TMZ (30 mg/kg), or a combination of pacritinib (100 mg/kg) and TMZ (30 mg/kg), were administered via oral gavage. Animals completed a five-week regimen of three weekly treatments for a total of 15 treatments. For BT53, 100 mg/kg of pacritinib was administered twice per day alone or in combination with 50 mg/kg TMZ once per day, for one week via oral gavage. Following this, mice received 100 mg/kg pacritinib twice per day in combination with 10 mg/kg TMZ once per day for two weeks. […] The body weights were closely monitored throughout the course of the experiment. […]

[5] = system: BT147 orthotopic xenograft; assay: Kaplan-Meier survival, orthotopic BT147 xenograft; type: in vivo; details: BT147 xenografted mice; pacritinib 100 mg/kg, TMZ 30 mg/kg, oral, thrice weekly for five weeks; control 52 days
Protocol: For Kaplan-Meier survival studies, BTIC spheres from BT53 or BT147 were dissociated to a single-cell suspension. Mice were anaesthetized using 10 mg/kg ketamine/xylazine. Buprenorphine (0.05 mg/kg) was administered once pre-operatively and once post-operatively to minimize animal suffering. 5 x 10^4 cells were stereotactically implanted into the right striata of 8- to 10-week-old female severe combined immunodeficient (SCID) mice, as previously described and approved by the University of Calgary Health Sciences Animal Care Committee, accredited by CCAC. Mice were randomized to vehicle or treatment cohorts, with a minimum of 8 mice per group, one week after cell implantation. For BT147, vehicle (Ora-Plus; Galenova), pacritinib (100 mg/kg), TMZ (30 mg/kg), or a combination of pacritinib (100 mg/kg) and TMZ (30 mg/kg), were administered via oral gavage. Animals completed a five-week regimen of three weekly treatments for a total of 15 treatments. For BT53, 100 mg/kg of pacritinib was administered twice per day alone or in combination with 50 mg/kg TMZ once per day, for one week via oral gavage. Following this, mice received 100 mg/kg pacritinib twice per day in combination with 10 mg/kg TMZ once per day for two weeks. Mice were euthanized with a lethal dose of sodium pentobarbital at a pre-defined humane endpoint. Specific criteria for the endpoint included: 20% weight loss, lack of grooming, inactivity, hind limb paralysis, and/or inability to eat or drink. The body weights were closely monitored throughout the course of the experiment. […] The presence of tumor was confirmed in the mice via necropsy and cranial dissection.

[6] = system: patient-derived GBM BTIC cultures; assay: alamarBlue viability assay, panel of BTIC cultures; details: 10 μg/mL TMZ
Protocol: Accumax (eBioscience) was used to enzymatically dissociate BTIC spheres to single cells. Cells were seeded at 1000 cells per well in 96-well plates and treated with vehicle (DMSO) or drug, 24 hours after plating. BTIC viability was assessed after 7–14 days, once spheres were formed in control wells, by performing the alamarBlue™ (Invitrogen) assay per the manufacturer’s instructions. In brief, the alamar dye was added to each well and plates were read 6 hours later. Fluorescence intensity (excitation 540 nm; emission 590 nm) was measured on a SpectraMax M Series Multi-Mode Microplate reader. […] All experiments were performed in triplicate with a minimum of 3 wells per condition.
BTICs were treated with suboptimal doses of 1 μM pacritinib (CTI Biopharma), 10 μg/mL TMZ (Sigma), or a combination of pacritinib and TMZ. […] Percent inhibition was determined by normalizing each well to the control well (0.1% DMSO).

## Cc1cc(=O)n(-c2ccccc2)n1C [Antipyrine]
In vitro; microsomes, % Remaining
  remaining at 0.5 h, 1 μM: 96.5%
[1]
  Usual value (% remaining): Usual value: >90%

## COc1ccc2c(c1)[C@]13CCCC[C@@H]1[C@H](C2)N(C)CC3 [DXM]
[2]
  % Remaining: 75.0%
[3]
  Usual value (% remaining): Usual value: 72 ± 10%

## CC(C)NCC(O)COc1cccc2ccccc12 (centres unmarked) [Propranolol]
In vitro; liver microsomes, mouse liver microsomes, 30-minute incubation, 1 μM, read-out: % Remaining
  remaining at 0.5 h, 1 μM: 9.6%
[1]
  Usual value (% remaining): Usual value: <20%

## Cn1nnc2c(C(N)=O)ncn2c1=O [TMZ, temozolomide]
p-STAT3 Y705
  p-STAT3 Y705: dramatic increase in p-STAT3 Y705
[4]
  survival advantage over the control, combination study: significant survival advantage over the control arm
[5]
  median survival: 58 days
[6]; representative BT12
  sensitivity of MGMT unmethylated BTIC cultures: largely resistant to TMZ
[6]; representative BT67 and BT69
  sensitivity of MGMT methylated BTIC cultures: highly sensitive to TMZ
